Entries after “also recorded” stand apart in the source; their conditions may differ. Where a SMILES comes first, the peptide text is derived from it.

Data set [1] can be described thus: Circular dichroism secondary structure determination. The following applies: acetonitrile:PBS (1:2), 20 μM peptide, 0.1 cm cuvette, 10 accumulations; for Others (secondary structure content) / α-helix content / β-sheet content: Table S2, estimated by BeStSel from CD; for α-helical structure content: circular dichroism.
Description: We next performed circular dichroism (CD) analysis of the peptides in solution to determine the peptides’ secondary structure.
Peptide secondary structure determination was carried out using a Jasco J-720 spectropolarimeter (Table S2). Lyophilized peptide powders were dissolved in acetonitrile:PBS (1:2), and CD spectra were read immediately. […] Samples were read using a 0.1 cm cuvette path length with 10 accumulations per run and 50 nm/min scanning speed. All spectra were background subtracted.
Data set [2] has as its target T1, hGLP1R (Homo sapiens, UniProt P43220).
T1 construct: expressed in transfected cells
Description: HTRF cAMP assay in GLP-1R-expressing HEK293 cells. The data set is classed as cell-based. The following applies: at higher concentrations, HEK293 stably expressing GLP-1R, 4 h at 37 °C. How it is done: cAMP accumulation was measured using a HTRF cAMP-Gs Dynamic kit (Cisbio Bioassays, 62AM4PEB) according to the manufacturer’s instructions. Briefly, HEK293 cells expressing hGLP1R were trypsinized from subconfluent culture and seeded in a 96-well low-volume plate at a density of 2000 cells per well. […] After 4 h of incubation at 37 °C, cAMP d2 reagent and cAMP Eu-Cryptate antibodies were added to each well. After incubation at room temperature for 30 min in the dark, the plate was read using a Synergy 2 plate reader (BioTek) with excitation at 330 nm and emission at 620 and 665 nm. Data were used to calculate the EC50 value by fitting it to a nonlinear sigmoidal curve using GraphPad Prism 8.
For orientation: TR-FRET usually uses a lanthanide donor and a delayed reading to cut background.

Data set [3] concerns CCR2. Kind of data set: CRE-luciferase reporter assay of MCP1 fusion constructs (platform validation). The data set is classed as cell-based. Particulars: HEK293T stably expressing CCR2 and Gaussia luciferase reporter, luciferase induced by 10 μM forskolin. The text has this:
Figure 2 Validation of the screening platform using the MCP1 peptide. (A) Genetic construction that encodes the fusion protein used to display library peptides on the cell surface. (B) Cell surface localization of the MCP1-GFP peptide and CCR2-mCherry receptor. MCP1-GFP peptide and CCR2-mCherry were localized at the cell surface when expressed separately. (C) MCP1-GFP peptide colocalized with CCR2-mCherry at the cell surface and distinct subcellular sites upon transient coexpression in HEK293T cells. (D) Evaluating the activity of different fusion proteins of the MCP1 peptide using a CRE-luciferase reporter assay. […] The activation of the different peptide variants was recorded through the inhibition of the luciferase expression induced by 10 μM forskolin.
MCP1-GFP and CCR2-mCherry were localized at the cell surface when expressed separately (Figure 2B). […] We then evaluated the activity of the different MCP1-GFP constructions using a CRE-luciferase reporter assay. As a negative control, we used a construction where the MCP1 peptide is not fused to the signal or GPI-AP sequences.
HEK293T cells stably expressing CCR2 and the reporter Gaussia Luciferase construct were trypsinized from subconfluent culture and seeded in a 96-well plate at a density of 5000 cells per well. […] Immediately after adding the reagent, samples were read using a luminometer with a 480 nm filter.
A general note: Reporter assays use an easily measured gene product as a stand-in for the process of interest.

The subject of data set [4] is CCR2-mCherry. Kind of data set: FRET colocalization of MCP1-GFP with CCR2-mCherry at the cell surface. It is filed as cell-based. The following applies: MCP1-GFP and CCR2-mCherry; transient coexpression in HEK293 cells; FRET assays. How it is done:
To validate our screening platform, we chose the interaction between the chemokine MCP1 peptide and C–C chemokine receptor 2 (CCR2).[10],[11] We designed a structure that encodes a fusion protein to display the MCP1 peptide on the cell surface. The Ly6/neurotoxin (LYNX1) signal and GPI-AP sequences were present in this fusion protein’s N- and C-terminal regions, respectively. A Flag tag or GFP sequence was added upstream of the GPI-AP sequence. We also investigated the effect of various linkers between MCP1 and FLAG, as well as the FLAG and GPI-AP sequences (Figure 2A). All of the different MCP1-GFP constructions and CCR2 receptor fused with the mCherry fluorescent protein (CCR2-mCherry) were cloned into the pLJM1 nGFP lentiviral vector to evaluate their expression in human embryonic kidney 293 (HEK293) cells.
Figure 2 Validation of the screening platform using the MCP1 peptide. (A) Genetic construction that encodes the fusion protein used to display library peptides on the cell surface. (B) Cell surface localization of the MCP1-GFP peptide and CCR2-mCherry receptor. MCP1-GFP peptide and CCR2-mCherry were localized at the cell surface when expressed separately. […]
MCP1-GFP and CCR2-mCherry were localized at the cell surface when expressed separately (Figure 2B). […] We then evaluated the activity of the different MCP1-GFP constructions using a CRE-luciferase reporter assay. […]

Data set [5] relates to GLP-1R. Kind of data set: cAMP assay (TR-FRET) for validating GLP-1R activating peptides from screening. It is filed as cell-based. The following applies: cells stably expressing GLP-1R and CRE, transfected with peptide-expressing construct, 24 h + 24 h; TR-FRET cAMP-Gs Dynamic kit. The source says: We next screened the GPI-AP-peptide library using FACS to discover novel GLP-1R activators. FACS is a widely used flow cytometric technique that isolates specific cell populations from mixtures of different cells. Briefly, when a potential peptide activator stimulates GLP-1R, there is an intracellular boost of cAMP levels. Subsequently, cAMP activates CREB, which binds to CRE and triggers transcription of the GFP/luciferase reporter gene. […] We chose the top three activating peptides found throughout the screening for further validation testing (PepA3, Pep1, and Pep2).
Figure 3 Discovery of novel agonists of the GLP-1R using our screening platform. (A) Fluorescence-activated cell analysis and sorting of HEK293 cells transfected with the GLP-1R. […] (B) Confocal microscopy of HEK293 cells transfected with the GLP-1R treated with different peptides. […] The increase in the cyclic AMP concentration was quantified to evaluate the peptides’ activities.
The stable cell lines were prepared by the infection of HEK293T cells with the pLJM1 vector with GLP-1R and CRE. The cells were selected with the hygromycin antibiotic. […] The culture medium was changed, and cells were grown for 24 h. The cAMP cell content was estimated using a homogeneous time-resolved fluorescence resonance energy transfer (TR-FRET) immunoassay using a cAMP-Gs Dynamic kit (PerkinElmer) following manufacturer’s protocol.

Data set [6] relates to GLP-1R. Kind of data set: FACS analysis of GFP-positive cells (CRE-GFP reporter), GLP-1R-expressing HEK293. The data set is classed as cell-based. Particulars: HEK293 cells transfected with GLP-1R. In general terms: In flow cytometry, cells or beads pass a laser one at a time.
Description: Cells were harvested by trypsin treatment and centrifuged at 500g for 5 min. The pellet was resuspended in ice-cold PBS and centrifuged again. The pellet was then resuspended at a concentration of 4 × 10^6 cells/mL in the PBS sorting buffer containing 100 Kunitz DNase I/mL, 10 μg/mL propidium iodide (Sigma), and 2% FBS. The sorting solution was also supplemented with either 10 μM forskolin, 100 μM 5,6-dichlorobenzimidazole riboside (DRB, Sigma), 10 μM forskolin (Sigma), and 100 μM DRB or DMSO, as a control. The cells were then sent through a 40 μm filter to remove large clumps and loaded into either a FACScan Flow Cytometer (BD Bioscience) for cell analysis or a FACSVantage SE cell sorter (BD Bioscience) for cell sorting. The cells with positive propidium iodide staining, i.e., the dead cells, were first eliminated from the analysis or sorting pool. For cell sorting, the desired population, either the EGFP brightest or least bright ones according to the purpose of experiments (see Results), was sorted into either 15 mL conical tubes or 96-well plates, which contained complete DMEM culture media.
The target in data set [7] is glucagon-like peptide-1 receptor (human) (UniProt P43220).
Sequence of glucagon-like peptide-1 receptor (human) (P43220 24-463): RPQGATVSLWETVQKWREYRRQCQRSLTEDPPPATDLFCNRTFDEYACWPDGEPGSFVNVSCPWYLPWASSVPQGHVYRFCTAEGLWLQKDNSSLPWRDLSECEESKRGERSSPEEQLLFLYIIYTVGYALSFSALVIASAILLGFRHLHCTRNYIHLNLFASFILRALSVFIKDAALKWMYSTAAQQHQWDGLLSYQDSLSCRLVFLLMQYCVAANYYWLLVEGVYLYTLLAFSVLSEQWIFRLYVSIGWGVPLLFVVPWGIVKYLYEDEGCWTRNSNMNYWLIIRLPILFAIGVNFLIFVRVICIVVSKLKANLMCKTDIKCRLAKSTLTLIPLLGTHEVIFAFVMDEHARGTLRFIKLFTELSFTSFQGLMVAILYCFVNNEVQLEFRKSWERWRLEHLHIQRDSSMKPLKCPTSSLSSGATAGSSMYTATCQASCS

T1 sequence (P43220 24-463): as above

`CC[C@H](C)[C@H](N)C(=O)N[C@@H](CS)C(=O)N[C@@H](CCC(=O)O)C(=O)NCC(=O)N[C@@H](CC(C)C)C(=O)N[C@@H](CCCNC(=N)N)C(=O)N[C@@H](CCC(=O)O)C(=O)N[C@H](C(=O)N[C@@H](CS)C(=O)N[C@@H](CCC(N)=O)C(=O)N1CCC[C@H]1C(=O)N[C@@H](C)C(=O)N[C@@H](Cc1ccccc1)C(=O)N[C@@H](CC(=O)O)C(=O)N[C@@H](C)C(=O)N[C@H](C(=O)N[C@@H](CC(=O)O)C(=O)N[C@@H](CCSC)C(=O)N[C@@H](C)C(=O)N[C@@H](Cc1c[nH]c2ccccc12)C(=O)N1CCC[C@H]1C(=O)N[C@@H](Cc1ccc(O)cc1)C(=O)N[C@@H](Cc1ccccc1)C(=O)N[C@@H](CC(C)C)C(=O)N[C@@H](CC(=O)O)C(=O)N[C@@H](CS)C(=O)N[C@@H](Cc1c[nH]cn1)C(=O)N[C@@H](CCCNC(=N)N)C(=O)N[C@@H](Cc1ccc(O)cc1)C(=O)N[C@@H](Cc1ccccc1)C(=O)N[C@H](C(=O)N[C@@H](CCCNC(=N)N)C(=O)N[C@@H](CCC(=O)O)C(=O)O)[C@@H](C)O)[C@@H](C)CC)C(C)C` [PepA2] (H-ICEGLREVCQPAFDAIDMAWPYFLDCHRYFTRE-OH; N-terminus and C-terminus assumed): in data set [1], the “Others (secondary structure content)” value is recorded as 56.5%, the α-helix content is listed as 30.1%, the β-sheet content was 13.3% and the “α-helical structure content” value was 30.1–46.1%. In data set [2], the “efficacy for GLP-1R activation relative to GLP-1” value is listed as “able to stimulate GLP-1R activation to a level comparable to that of GLP-1”.

For the compound “MCP1: chemokine MCP1 peptide displayed on the cell surface as fusion with LYNX1 signal and GPI-AP sequences”, the “activation of CCR2 receptor (inhibition of forskolin-induced luciferase expression)” value in data set [3] (MCP1 fused to the signal sequence and GPI-AP (all constructions), 6 h after transfection) was “activated the receptor in all the constructions where the peptide was fused to the signal sequence and GPI-AP; also recorded: activated the CCR2 receptor in all the constructions where the peptide was fused to the signal and GPI-AP sequences”; in data set [3] (negative control: MCP1 not fused to the signal or GPI-AP sequences) it was “did not activate the CCR2 receptor when the peptide was not fused to the signal sequence and GPI-AP”. For the same compound, the “colocalization with CCR2 at the cell surface” value in data set [4] was “colocalization of MCP1 and CCR2 at the cell surface”.

In the case of ELAELVPRLFRVASKTHRDLLEVNLQNGILFV [Pep1], the “stimulation of GLP-1R-expressing cells and intracellular cAMP increase” value in data set [5] is reported as “Only PepA3 stimulated the GLP-1R-expressing HEK293 cells”.

Take SGLAGHSVFLVPGLAAHPGSHSDQPPGVPSRR [Pep2]: the “stimulation of GLP-1R-expressing cells and intracellular cAMP increase” value in data set [5] is “Only PepA3 stimulated the GLP-1R-expressing HEK293 cells”.

As to `C=C[C@@]1(C)CC(=O)[C@]2(O)[C@@]3(C)[C@@H](O)CCC(C)(C)[C@@H]3[C@H](O)[C@H](OC(C)=O)[C@@]2(C)O1` [forskolin], the “GFP-positive cells versus no treatment” value in data set [6] is recorded as “more GFP-positive cells”.

`CC[C@H](C)[C@H](NC(=O)[C@H](C)NC(=O)[C@H](CC(=O)O)NC(=O)[C@H](Cc1ccccc1)NC(=O)[C@H](C)NC(=O)[C@@H]1CCCN1C(=O)[C@H](CCC(N)=O)NC(=O)[C@H](CS)NC(=O)[C@@H](NC(=O)[C@H](CCC(=O)O)NC(=O)[C@H](CCCNC(=N)N)NC(=O)[C@H](CC(C)C)NC(=O)CNC(=O)[C@H](CCC(=O)O)NC(=O)[C@H](CS)NC(=O)[C@@H](NC(=O)[C@@H](N)Cc1c[nH]cn1)[C@@H](C)CC)C(C)C)C(=O)N[C@@H](CC(=O)O)C(=O)N[C@@H](CCSC)C(=O)N[C@@H](C)C(=O)N[C@@H](Cc1c[nH]c2ccccc12)C(=O)N1CCC[C@H]1C(=O)N[C@@H](Cc1ccc(O)cc1)C(=O)N[C@@H](Cc1ccccc1)C(=O)N[C@@H](CC(C)C)C(=O)N[C@@H](CC(=O)O)C(=O)N[C@@H](CS)C(=O)N[C@@H](Cc1c[nH]cn1)C(=O)N[C@@H](CCCNC(=N)N)C(=O)N[C@@H](Cc1ccc(O)cc1)C(=O)N[C@@H](Cc1ccccc1)C(=O)N[C@H](C(=O)N[C@@H](CCCNC(=N)N)C(=O)N[C@@H](CCC(=O)O)C(=O)O)[C@@H](C)O` [PepA] (H-HICEGLREVCQPAFDAIDMAWPYFLDCHRYFTRE-OH; N-terminus and C-terminus assumed): in data set [1], the “Others (secondary structure content)” value was 45.4%, the α-helix content is 46.1%, the β-sheet content was 8.5% and the “α-helical structure content” value was 30.1–46.1%. Also, in data set [2], the “efficacy for GLP-1R activation relative to GLP-1” value is on record as “able to stimulate GLP-1R activation to a level comparable to that of GLP-1”.

As for glucagon-like peptide-1 (ligand), in data set [7], the EC50 of the decrease of the FRET signal in the HTRF cAMP assay, GLP-1R expressing HEK293 cells came out at 0.54 nM.

`CC[C@H](C)[C@H](NC(=O)[C@H](C)NC(=O)[C@H](CC(=O)O)NC(=O)[C@H](Cc1ccccc1)NC(=O)[C@H](C)NC(=O)[C@@H]1CCCN1C(=O)[C@H](CCC(N)=O)NC(=O)[C@H](CS)NC(=O)[C@@H](NC(=O)[C@H](CCC(=O)O)NC(=O)[C@H](CCCNC(=N)N)NC(=O)[C@H](CC(C)C)NC(=O)CNC(=O)[C@H](CCC(=O)O)NC(=O)[C@@H](N)CS)C(C)C)C(=O)N[C@@H](CC(=O)O)C(=O)N[C@@H](CCSC)C(=O)N[C@@H](C)C(=O)N[C@@H](Cc1c[nH]c2ccccc12)C(=O)N1CCC[C@H]1C(=O)N[C@@H](Cc1ccc(O)cc1)C(=O)N[C@@H](Cc1ccccc1)C(=O)N[C@@H](CC(C)C)C(=O)N[C@@H](CC(=O)O)C(=O)N[C@@H](CS)C(=O)N[C@@H](Cc1c[nH]cn1)C(=O)N[C@@H](CCCNC(=N)N)C(=O)N[C@@H](Cc1ccc(O)cc1)C(=O)N[C@@H](Cc1ccccc1)C(=O)N[C@H](C(=O)N[C@@H](CCCNC(=N)N)C(=O)N[C@@H](CCC(=O)O)C(=O)O)[C@@H](C)O` [PepA3] (H-CEGLREVCQPAFDAIDMAWPYFLDCHRYFTRE-OH; N-terminus and C-terminus assumed): the “stimulation of GLP-1R-expressing cells and intracellular cAMP increase” value in data set [5] is “stimulated the GLP-1R-expressing HEK293 cells and increased the cAMP intracellular levels”. Moreover, in data set [1], the “Others (secondary structure content)” value is recorded as 46.7%, the α-helix content is 42.9%, the β-sheet content is 10.4% and the “α-helical structure content” value is reported as 30.1–46.1%. Also, in data set [2], the “efficacy for GLP-1R activation relative to GLP-1” value is “able to stimulate GLP-1R activation to a level comparable to that of GLP-1”.

Source of the values: PMC11635519, “A High-Throughput Method for Screening Peptide Activators of G-Protein-Coupled Receptors” (ACS Omega, 2024).
